Results on three molecules are retold here after patent US20200179361A1, “COMPOSITIONS, METHODS OF USE, AND METHODS OF TREATMENT” (TORREY PINES INSTITUTE FOR MOLECULAR STUDIES, priority 2017, published 2020).

“Also recorded” adds a separate entry of the source.

A short description of data set [1]: pharmacokinetics, blood content and blood brain barrier penetration after sc administration. The settings on record: rats, 2.0 mg/kg sc.
In another data set the test system is Male Sprague Dawley rats. The settings on record: rat, in vivo.
For data set [2] the following is noted: smoking cessation; cited from earlier work.

Description for Male Sprague Dawley rats: Male Sprague Dawley rats obtained from Charles River (Portage, Mich.) and weighing 200-225 g at their arrival were used in this study. Rats were housed in groups of two in a room with a reverse 12 h light/12 h dark cycle (lights off at 07:30 AM). All experiments were conducted during the dark phase of the cycle. Animals were acclimatized for 7 days with water and chow (Teklad Diets, Madison, Wis.) and handled for 3 times before the experiments were started. Throughout all operant procedures, rats were food restricted (received 20 g of chow daily) with water freely accessible.
5 was dissolved in a vehicle of 0.9% saline and injected subcutaneously at doses of (0.0, 0.3, 1.0 mg/kg). The injection volume was 1 ml/kg. […] (−)-Nicotine hydrogen tartrate salt and alcohol were purchased from Sigma (St. Louis, Mo.). Alcohol was diluted to a concentration of 10% v/v in water and made available orally. Nicotine solution for i.v. injection (30 micrograms/kg/0.1 ml infusion) was obtained by dissolving the salt in 0.9% saline and the pH adjusted to 7.0-7.4 with 3 M sodium hydroxide. Nicotine self-administration dose is reported as free base concentration.
The self-administration boxes consisted of operant conditioning chambers (Med Associates, Inc., St. Albans, Vt.) enclosed in lit, sound attenuating, ventilated environmental cubicles. […]

Consider `C[C@H]1CNC(=N)N1CCc1cccnc1` [Compound 5, (S)-5-Methyl-1-(2-(pyridin-3-yl)ethyl)imidazolidin-2-imine], for which the “time to maximal concentration in blood and brain” value in data set [1] is given as not above 10 min. For the same molecule, in the data set on Male Sprague Dawley rats, the “nicotine self-administration analysed in 30-min intervals” value was “decreased nicotine self-administration during the first 30 min but not during the remaining 90-min period; also recorded: reducing nicotine self-administration only in the first 30 min”.
For `CC(NC(C)(C)C)C(=O)c1cccc(Cl)c1` (stereo not shown) [bupropion], the “cessation rates in most clinical trials” value in data set [2] is 15-25%.
As for `c1cnc2cc3c(cc2n1)[C@@H]1CNC[C@H]3C1` [varenicline], the “cessation rates in most clinical trials” value in data set [2] was 23-40%.
